Results published in article PMC5400251, “Effect of quinoline based 1,2,3-triazole and its structural analogues on growth and virulence attributes of Candida albicans” (PLoS ONE, 2017).
Where two headings read alike, the source gives them in different places.

What was measured:
phospholipase secretion [1] = test: Phospholipase assay (egg yolk agar, Pz value); format: cell-based, C. albicans ATCC 90028
Protocol: (§1) Phospholipase activity was performed using the method of Price et al. (1982) with minor modifications. The cells were incubated at 37°C for 18 h and then centrifuged at 3000 rpm for 5 min. The pellet obtained was washed with PBS twice to remove the residual culture medium. […] Volumes of 1 μL were placed at equidistant points on phospholipase agar media plates (1% peptone; 3% glucose; 5.73% NaCl; 0.055% CaCl2 with 10% (v/v) egg yolk emulsion) and incubated at 37°C for 4 days. The secretion of phospholipases was determined by the formation of opaque zones due to precipitation around the yeast colonies. The assay was conducted in duplicate. Pz values were calculated as follows: Pzvalue=diameterofcolony/diameterofcolony+diameterofzoneofprecipitaion

[2] = target: T1, plasma membrane H+ ATPase (Candida albicans, UniProt P28877); test: cell-based; design: species or system C. albicans D15.9 (FLC-resistant); settings: for inhibition at 100 µg/mL: read-out: Inhibition of H+ extrusion
T1 construct: endogenous in cells; host or cells: C. albicans ATCC 90028; clinical isolates C. albicans D27 (FLC-susceptible) and D15.9 (FLC-resistant); mid-log phase whole cells
T1 sequence (P28877 whole entry): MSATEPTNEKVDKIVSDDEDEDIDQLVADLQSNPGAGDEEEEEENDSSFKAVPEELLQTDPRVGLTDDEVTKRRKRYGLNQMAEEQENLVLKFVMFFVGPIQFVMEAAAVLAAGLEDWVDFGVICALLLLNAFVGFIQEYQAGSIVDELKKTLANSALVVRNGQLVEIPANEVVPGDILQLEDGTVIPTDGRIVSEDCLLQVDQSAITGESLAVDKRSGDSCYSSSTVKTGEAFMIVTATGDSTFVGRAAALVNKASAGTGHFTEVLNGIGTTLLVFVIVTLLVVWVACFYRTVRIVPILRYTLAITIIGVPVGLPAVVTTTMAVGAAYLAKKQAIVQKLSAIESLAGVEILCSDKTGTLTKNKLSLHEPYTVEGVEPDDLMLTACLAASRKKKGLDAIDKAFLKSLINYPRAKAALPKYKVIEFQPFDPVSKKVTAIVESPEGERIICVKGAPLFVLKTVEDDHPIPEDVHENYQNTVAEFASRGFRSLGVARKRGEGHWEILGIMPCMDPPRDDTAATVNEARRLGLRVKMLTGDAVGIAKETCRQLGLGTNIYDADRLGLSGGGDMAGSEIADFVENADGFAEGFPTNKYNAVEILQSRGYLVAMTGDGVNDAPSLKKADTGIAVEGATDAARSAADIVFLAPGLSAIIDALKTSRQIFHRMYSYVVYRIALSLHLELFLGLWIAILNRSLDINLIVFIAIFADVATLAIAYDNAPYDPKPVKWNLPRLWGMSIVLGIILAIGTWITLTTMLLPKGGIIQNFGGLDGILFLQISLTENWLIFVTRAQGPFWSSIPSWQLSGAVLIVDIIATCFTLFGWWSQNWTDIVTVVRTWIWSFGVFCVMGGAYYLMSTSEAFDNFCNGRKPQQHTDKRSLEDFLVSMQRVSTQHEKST
Protocol: The proton pumping activity of C. albicans was determined by monitoring acidification of external medium by measuring pH as describe earlier. In brief, the mid-log phase cells were harvested from SD medium by centrifugation at 3000 rpm for 15 min which is followed by three washings with phosphate buffer saline (PBS). A solution containing 0.1 M KCl and 0.1 mM CaCl2 in distilled water was prepared. Compounds 3a and 3b at the concentrations of 50 and 100 μg/mL were separately added in this solution. […] Initial pH was adjusted to 7.0 using 0.01 M HCl/NaOH. Approximately 0.2 g of cells were suspended in each set of solution. Suspension was kept in a double-jacketed glass container with constant stirring. Again, the pH of suspension was maintained as 7.0 for 1 min by using 0.01 N NaOH. The rate of H^+ extrusion was then monitored and calculated from the volume of 0.01 N NaOH consumed per min per mg weight of cells. Glucose has been reported as the stimulator of proton extrusion pump. Therefore above experiment was also repeated in the presence of 5 mM of glucose.

ergosterol biosynthesis = test: Ergosterol estimation assay
[3] = target: T1, plasma membrane H+ ATPase; test: Measurement of intracellular pH (pHi); format: cell-based, C. albicans ATCC 90028; settings: 100 μg/mL; untreated 6.3
Protocol: (§2) In yeast cells, plasma membrane H^+-ATPase helps to maintain internal pH between 6.0 and 7.5. Intracellular pH (pHi) was measured as reported earlier by Manzoor et al.. Mid-log phase cells were harvested from SD medium and washed thrice with PBS. Subsequently, cells (0.1 g) were suspended in 5 mL solution of 0.1 M KCl, and 0.1 mM CaCl2 in distilled water. Compounds 3a and 3b were added to the suspension at a desired concentration of 100 μg/mL. […] Initial pH of the suspension was adjusted to 7.0 in each case and incubated for 30 min at 37°C with constant stirring. After incubation, the pH of suspension was again adjusted to 7.0 followed by the addition of nystatin (20 μM) and incubation at 37°C for 1 h. The change in pH of the suspension was monitored on a pH meter with constant stirring. The value of external pH at which nystatin permeabilization induced no further shift was taken as an estimate of pHi.

phospholipase secretion [4] = test: Phospholipase assay (egg yolk agar, Pz value); format: cell-based, C. albicans D27 (FLC-susceptible)
Protocol: as §1

[5] = target: T1, plasma membrane H+ ATPase; test: Measurement of intracellular pH (pHi); format: cell-based, C. albicans D27 (FLC-susceptible); settings: 100 μg/mL; untreated 6.6
Protocol: as §2

[6] = test system: C. albicans D15.9 (FLC-resistant); test: Disk diffusion assay; format: cell-based; settings: 48 h
Protocol: (§3) Disk diffusion assay was performed using C. albicans ATCC 90028 (standard), the two clinical isolates, C. albicans D27 (FLC-susceptible), and C. albicans D15.9 (FLC-resistant) for the lead inhibitors 3a and 3b. The C. albicans cells were inoculated into liquid SD medium and grown over night at 37°C. The cells were then centrifuged at 3000 rpm for 5 min, washed three times with PBS and then suspended in PBS again. Approximately, 10^5 cells/mL were inoculated into molten SD agar medium at 42°C and poured into 100-mm-diameter petriplates. Sterilized 4 mm disks of Whatman paper were placed on solid agar and 1, 2, and 4 μL of 3a and 2, 4, and 8 μL of 3b from the stock solution of 10 mg/mL were spotted on the disk. […] The diameter of zone of inhibition (ZOI) was recorded in millimetres after 48 h and was compared with that of control. This experiment was repeated thrice and values were shown in terms of mean ±standard error of mean.

[7] = test system: C. albicans D27 (FLC-susceptible); test: Disk diffusion assay; format: cell-based; settings: 48 h
Protocol: as §3

[8] = test system: C. albicans ATCC 90028 (Standard); test: Disk diffusion assay; format: cell-based; settings: 48 h
Protocol: as §3

[9] = target: T1, plasma membrane H+ ATPase; test: Measurement of intracellular pH (pHi); format: cell-based, C. albicans D15.9 (FLC-resistant); settings: 100 μg/mL; untreated 6.4
Protocol: as §2

[10] = 50 μg/mL in presence of glucose (5 mM)
[11] = 100 μg/mL in presence of glucose (5 mM)
[12] = Candida albicans, 40 μg per disk
[13] = Candida albicans, ATCC90028, 20 μg per disk
[14] = Candida albicans, ATCC90028, 40 μg per disk

Row | Compound | Decrease of phospholipase secretion (phospholipase secretion [1]; at MIC, 1 h exposure) | Decrease of phospholipase secretion (phospholipase secretion [1]; at MIC/4, 1 h exposure) | Range of relative H+ efflux rate [2, 10] | Range of relative H+ efflux rate ([2]; 50 μg/mL, no glucose) | Range of relative H+ efflux rate [2, 11] | Range of relative H+ efflux rate ([2]; 100 μg/mL, no glucose) | inhibition at 100 µg/mL [2] | Mean decrease in total ergosterol content (ergosterol biosynthesis; at MIC/4, 16 h) | Intracellular pH (pHi) [3] | Decrease of phospholipase secretion (phospholipase secretion [4]; at MIC, 1 h exposure) | Decrease of phospholipase secretion (phospholipase secretion [4]; at MIC/4, 1 h exposure) | Intracellular pH (pHi) [5] | zone of inhibition at 20 µg/disc ([6]; Candida albicans) | zone of inhibition at 40 µg/disc ([6]; Candida albicans) | zone of inhibition at 40 µg/disc [7, 12] | zone of inhibition at 20 µg/disc [8, 13] | zone of inhibition at 40 µg/disc [8, 14] | Intracellular pH (pHi) [9] | also measured
1 | c1ccc(Cn2cc(COc3cccc4cccnc34)nn2)cc1 [Compound 3a] | 43% | 40% | 28.30 ± 1.4 ×10^−6 mol min^−1 mg cells^−1 | 21.60 ± 1.0 ×10^−6 mol min^−1 mg cells^−1 | 20.00 ± 1.0 ×10^−6 mol min^−1 mg cells^−1 | 16.70 ± 0.8 ×10^−6 mol min^−1 mg cells^−1 | 40% | 30% | 5.2 | 42% | 25% | 5.2 | 26 mm | 32 mm | 26 mm | 35 mm | 39 mm | 5.4 | Mean decrease in total ergosterol content (ergosterol biosynthesis; above MIC/2, 16 h): 100%; Zone of Inhibition ([6]; 20 μg per disk): 26± 073 mm; Zone of Inhibition ([6]; 40 μg per disk): 32± 1.28 mm; zone of inhibition at 10 µg/disc ([6]; Candida albicans): 20 ± 0.21 mm; Zone of Inhibition ([7]; 40 μg per disk): 26± 0.92 mm; zone of inhibition at 20 µg/disc ([7]; Candida albicans): 19 ± 0.95 mm; zone of inhibition at 10 µg/disc ([7]; Candida albicans, 10 μg per disk): 14 ± 0.7 mm; Zone of Inhibition ([8]; 20 μg per disk): 35± 0.97 mm; Zone of Inhibition ([8]; 40 μg per disk): 39± 1.12 mm; zone of inhibition at 10 µg/disc ([8]; Candida albicans, ATCC90028, 10 μg per disk): 28 ± 0.72 mm
2 | Clc1ccc(OCc2cn(Cc3ccccc3)nn2)c2ncccc12 [Compound 3b, 8-((1-Benzyl-1H-1,2,3-triazol-4-yl)methoxy)-5-chloroquinoline] | 68% | 32% | 25.00 ± 1.2 ×10^−6 mol min^−1 mg cells^−1 | 18.30 ± 0.9 ×10^−6 mol min^−1 mg cells^−1 | 21.00 ± 1.0 ×10^−6 mol min^−1 mg cells^−1 | 16.00 ± 0.8 ×10^−6 mol min^−1 mg cells^−1 | 42% | 23% | 4.7 | 46% | 34% | 5.1 | 15 ± 0.21 mm | 18 ± 0.09 mm | 18 ± 0.87 mm | 18 ± 0.72 mm | 25 ± 0.9 mm | 4.7 | Phospholipase activity after treatment (phospholipase secretion [1]; Fig 4 legend): No phospholipase activity; Decrease in total ergosterol content (ergosterol biosynthesis; at MIC, 16 h): 100%; Decrease in total ergosterol content (ergosterol biosynthesis; at MIC/2, 16 h): 98%; Zone of Inhibition ([6]; 80 μg per disk): 22± 0.79 mm; zone of inhibition at 80 µg/disc ([6]; Candida albicans): 22 mm; Zone of Inhibition ([7]; 80 μg per disk): 26± 1.17 mm; zone of inhibition at 20 µg/disc ([7]; Candida albicans, 20 μg per disk, read-out: Zone of Inhibition): 16 ± 0.54 mm; zone of inhibition at 80 µg/disc ([7]; Candida albicans, 80 μg per disk): 26 mm; Zone of Inhibition ([8]; 80 μg per disk): 29± 0.93 mm; zone of inhibition at 80 µg/disc ([8]; Candida albicans, ATCC90028, 80 μg per disk): 29 mm
